Experiments:
Haemonchus contortus = test: In vivo nematode test Haemonchus contortus/sheep; details: sheep infected with Haemonchus contortus; applied orally and/or intravenously as pure active compound; complete cessation of worm egg excretion with the faeces after treatment
Method: Haemonchus contortus/Sheep Sheep which had been experimentally infected with Haemonchus contortus were treated after the prepotency time of the parasite had elapsed. The active compounds were applied orally and/or intravenously as pure active compound. The degree of effectiveness is determined by quantitatively counting the worm eggs which have been excreted with the faeces before and after the treatment. A complete cessation of egg excretion after the treatment means that the worms have been aborted or damaged to such an extent that they no longer produce eggs (dosis […]). Active compounds tested and effective dosage rates can be seen from the table which follows

Heterakis spumosa = test: In vivo nematode test Heterakis spumosa/mouse; details: mice infected with Heterakis spumosa; dosage rate 50 mg/kg, applied orally and/or intraperitoneally on day 46 after infection; adult parasites in colon and caecum counted on day 54, compared with untreated control
Description: Mice are experimentally infected with nematodes of the variety Heterakis spumosa. In order to infect the mice, 90 embryonate Heterakis spumosa eggs are applied orally.
After the prepotency time had elapsed, the suspended active compounds are applied orally and/or intraperitoneally on the 46th day after the infection.
The mice are selected on the 54th day after the infection. The adult parasites in the colon and caecum are counted with the aid of a microscope. The treatment results in the doses group are compared with the untreated control group.
Active compounds tested and effective dosage rates (dosis effectiva) can be seen from the table which follows.

Row | Molecule | Effective dosage rates in [mg/kg] (dosis effectiva) (Haemonchus contortus) | Reduction rate in [%] (Heterakis spumosa)
1 | CC(C)C[C@H]1C(=O)O[C@H](Cc2ccccc2)C(=O)N(C)[C@@H](CC(C)C)C(=O)O[C@H](C)C(=O)N(C)[C@@H](CC(C)C)C(=O)O[C@H](Cc2ccccc2)C(=O)N(C)[C@@H](CC(C)C)C(=O)O[C@H](C)C(=O)N1C [PF 1022A, cyclo(-N-methyl-L-leucyl-D-lactyl-N-methyl-L-leucyl-D-phenyllactyl-N-methyl-L-leucyl-D-lactyl-N-methyl-L-leucyl-D-phenyllactyl-), reference compound] | 0.25 | 0
2 | Cyclo(-N-methyl-L-leucyl-D-thiolactyl-N-methyl-L-leucyl-D-phenylthiolactyl- N-methyl-L-leucyl-D-thiolactyl-N-methyl-L-leucyl-D-phenylthiolactyl-) [Example 1] | 0.10 | 100
3 | Cyclo(N-methyl-L-leucyl-D-thiolactyl-N-methyl-L-leucyl-D-phenyllactyl-N-methyl-L-leucyl-D-lactyl-N-methyl-L-leucyl-D-phenyllactyl-) [Example 7] | 0.01 | 
4 | Cyclo(N-methyl-L-leucyl-D-thiolactyl-N-methyl-L-leucyl-D-4-N-morpholinophenyllactyl-N-methyl-L-leucyl-D-lactyl-N-methyl-L-leucyl-D-4-N-morpholinophenyllactyl-) [Example 8] | 0.01 | 
5 | Cyclo(-N-methyl-L-leucyl-D-thiolactyl-N-methyl-L-leucy-D-4-(pyrid-2-yl-methoxy)-phenylthiolactyl-N-methyl-L-leucy-D-thiolactyl-N-methyl-L-leucyl-D-4-(pyrid-2-yl-methoxy)-phenylthiolactyl-) [Example 6] | 0.01 | 
6 | Cyclo(-N-methyl-L-leucyl-D-thiolactyl-N-methyl-L-leucyl-D-4-(pyrid-2-yl-methoxy)-phenyllactyl-N-methyl-L-keucyl-D-lactyl-N-methyl-L-leucyl-D-4-(pyrid- 2-yl-methoxy)-phenyllactyl-) [Example 10] | 0.01 | 
7 | Cyclo(-N-methyl-L-leucyl-D-thiolactyl-N-melhyl-L-leucyl-D-4-N-morpholinophenylthiiolactyl-N-methyl-L-leucyl-D-thiolactyl-N-methyl-L-leucyl-D-4-N-morpholinophenylthiolactyl-) [Example 3] | 0.025 | 
8 | CC(C)CC1C(=O)OC(Cc2ccc(N3CCOCC3)cc2)C(=O)N(C)C(CC(C)C)C(=O)OC(C)C(=O)N(C)C(CC(C)C)C(=O)OC(Cc2ccc(N3CCOCC3)cc2)C(=O)N(C)C(CC(C)C)C(=O)OC(C)C(=O)N1C [Cyclo(-MeLeu-D-Lac-MeLeu-D-4-MorPhLac-)2, cyclo(-N-methyl-L-leucyl-D-lactyl-N-methyl-L-leucyl-D-4-N-morpholino-phenyllactyl-N-methyl-L-leucyl-D-lactyl-N-methyl-L-leucyl-D-4-N-morpholinophenyllactyl-), reference compound] | 0.05 | 
9 | Cyclo(N-methyl-L-leucyl-D-thiolactyl-N-methyl-L-leucyl-D4-fur-2-yl-methoxy)-phenyllactyl-N-methyl-L-leucyl-D-lactyl-N-methyl-L-leucyl-D-phenyllactyl-) [Example 12] | 0.01 | 

From US6265537A, “Thiodepsipeptides for combating endoparasites and a method for producing the same” (Bayer Aktiengesellschaft, priority 1997, dated 2001)
